Experimental data reported in patent US5200397A, “Use of peptide analogs of thrombospondin for the inhibition of angiogenic activity” (W. R. Grace & Co.-Conn., priority 1991, dated 1993).
Residues, ends and D or L forms follow the SMILES beside them. No end group written: not given here.

Experiments:
platelets = assay: Direct platelet adhesion assay; type: cell-based; settings: for Adherence as % Control: wells treated with 50 μl of 40 μg/ml solution, platelets
Procedure: The number of adherent platelets was essentially determined as previously described (Tuszynski et al., Anal. Bio. supra). Briefly, 100 μl of 5×10^8 platelets/ml washed as previously described (Tuszynski, et al., Blood 72, 109-225, 1988) were added to microtiter plates, the wells of which were treated with 50 μl of a 40 μg/m] peptide or protein solution (Hepes buffered saline, pH 7.4). Solutions were dried at room temperature after incubation in a fume hood for two hours. Wells were blocked for one hour with 1% BSA. Platelets (100 μl) were incubated in the wells for 30 minutes and non-adherent platelets were removed by aspiration. Wells were washed 3X with 200 μl of Hepes buffered saline, pH 7.4. The number of adherent platelets was determined by measuring the platelet-derived protein using the BCA protein assay.

[1] = test system: Mouse B16 F10 melanoma cells; assay: Direct adhesion assay (melanoma cells to adsorbed ligand); type: cell-based; settings: for Adhesion as % Thrombospondin: absorbed compound 2 μg, B16 F10 melanoma cells
Procedure: It is believed that thrombospondin acts in metastasis through its adhesive properties. […] In this assay, wells of a 96-well microtiter dish (Costar, 10 Cambridge, Massachusetts) were incubated for two to three hours with 50 μl of a 40 μg/ml solution of various ligands in 20 mM NaCl, pH 7.3. Thrombospondin (purified by the method of Tuszynski et al., J. Biol. Chem. (1985) 260:12240-5), fibronectin (Sigma Chemical Co., Missouri) served as the positive control. Bovine serum albumin (BSA) (Sigma Chemical Co.) served as the negative control. […] Following peptide adhesion to the microtiter dish, the wells were aspirated, treated with 200 μl phosphate buffered saline (PBS) containing 1% BSA for 1 hour and then washed three more times with 200 μl PBS.
Mouse B16 F10 melanoma cells were grown and harvested during log phase of growth using standard procedures. The harvested cells were washed two times in serum-free Dulbecco's minimum essential medium (DMEM) (Flow Laboratories) and suspended in DMEM at a final concentration of 4×10^5 cells/ml. Of the cell suspension 100 μl was added to each well of the microtiter dish containing the various ligands and the dish incubated at 37° C. in a CO2 incubator for 1 hour. Nonadherent cells were removed by aspiration and the wells washed three times with 200 μl of PBS. The total cell-associated protein was determined by dissolving the attached cells directly in the microtiter wells with 200 μl of the Pierce BCA working solution (Pierce Chem. Co. Booklet No. 23225 (1987)). The plate was covered with an adhesive mylar sheet (Flow Labs) and incubated at 60° C. for 30 minutes. Plates were allowed to cool to room temperature, cover sheets were removed, and the absorbance of each well was determined at 562 nm with a microtiter plate reader (Biotek, Burlington, Vt.)

collagenase = assay: Collagenase inhibition assay (Johnson-Wint radiometric); type: biochemical; settings: 2 μg dose
Procedure: Collagenase inhibitory activity was determined as described by Johnson-Wint (Anal. Biochem. (1980) 104:175). Peptides p1 (SEQ ID No. 1) and p27 (SEQ ID NO. 19) were tested in the Johnson-Witt radiometric enzyme assay for collagenase activity at doses of 50 ng, 100 ng, 250 ng, 500 ng, 1 μg and 2μg. Peptide p27 was inhibitory (-21%) at the 2μg dose.

[2] = test system: B16 F10 mouse melanoma cells; assay: Antimetastatic activity in vivo (lung tumors); parameters: species or system C57 black mice; settings: for % buffer control (number of lung tumors): intravenous with cells, 16 days
From the text: After 16 days, the mice were sacrificed and the number of lung tumors counted.

[3] = test system: Platelet-rich-plasma (PRP); assay: Platelet aggregation assay (ADP, platelet-rich plasma); type: cell-based; settings: 1 μM ADP
Procedure: Platelet aggregation was monitored on a single-channel aggregometer equipped to measure luminescence (Chromo-Log, Havertown, Pa.). Platelet-rich-plasma (PRP) was obtained from whole blood anti-coagulated with 0.38% Sodium Citrate by centrifugation at 150 X g for 20 minutes. Peptides were added to 0.5 ml of PRP and aggregation initiated with 1 μM ADP. Buffer blanks contained diluent (water) but no peptide.

intact thrombospondin = assay: Competitive assay, thrombospondin specific adhesion to melanoma cells; type: cell-based; settings: for % of buffer control: melanoma cell adhesion to absorbed thrombospondin
Procedure: The direct adhesion assay of Example 5 was modified to measure the ability of the peptide compounds of the invention to compete with intact thrombospondin for adhesion to melanoma cells.
In this assay, intact thrombospondin is absorbed onto microtiter dishes as described in Example 5. The assay is similar to Example 5 except that before the melanoma cells are added to the microtiter dishes they are preincubated for 15 minutes with 100 μg/ml of various ligands.

fibronectin (FN) = assay: Competitive platelet adhesion assay, absorbed fibronectin; type: cell-based; settings: 250 μg/ml; absorbed protein FN; platelets
Procedure: The direct adhesion assay of Example 7 was modified to measure the ability of the peptide compounds of the invention to compete with intact thrombospindin or fibronectin for adhesion of platelets.
In this assay, thrombospondin (TSP) or fibronectin (FN) was absorbed onto microtiter dish as described in Example 7. The assay was similar to Example 7 except that before platelets were added to the microtiter dishes they were preincubated with 250 μg/ml of various ligands.

[4] = test system: chicken chorioallantoic membrane (CAM); assay: CAM assay (antiangiogenesis, Avascular Index); type: in vivo; settings: any dosage
Procedure: Assays for antiangiogenic properties on the chicken chorioallantoic membrane (CAM) were performed using the "egg culture" technique (Auerbach, Dev. Biol. (1974) 41:391 and Crum, Science (1985) 230:1375). The fertilized White Leghorn egg (Truslow Farms, Chestertown, Md.) used in this method was removed from the shell on day 3 (after fertilization) and placed in a culture dish. The "cultured egg" was maintained through day 6 at 37° C. in an atmosphere of 2% CO2 and a relative humidity of 70%. After day 6 incubation was carried out without supplemental CO2.
Test materials were implanted on the CAM using low gelling temperature agarose pellets (Castellot, J. Cell Physiol. (1986) 127:323). This assay was performed twice. In the first assay, the test materials included pellets containing 90, 9, and 0.9 μg of peptide p1 (SEQ ID No. 1) diluted in water. […]
Antiangiogenesis was examined in an assay for inhibition of embryonic angiogenesis as described by Fenselau in "Growth and Maturation Factors" (1984) 2:175. After 1 or 2 days the samples were evaluated for their antiangiogenic effects on the CAM. […]
Inhibition of embryonic angiogenesis was also quantitated by measuring the size of the affected zone surrounding the pellet as well as the portion of the pellet that borders the affected region. […]

For Thrombospondin [reference compound], the “Adherence as % Control” value (platelets) was 100% and the “Adhesion as % Thrombospondin” value [1] was 100%.
fibronectin was tested, and the “Adherence as % Control” value (platelets) was 83%.
In the case of “p27: Peptide p27 (SEQ ID NO. 19) tested in the collagenase assay; sequence not printed (WTSCSTSCG)”, the “collagenase activity, inhibition” value (collagenase) was -21%.
“WSPCSVTCG-NH2 (cysteine pairing not given here) [p6]” was tested, and the “% buffer control (number of lung tumors)” value ([2]; 30 μg/mouse) was 91%, the “% buffer control (number of lung tumors)” value ([2]; 100 μg/mouse) was 102% and the “% buffer control (number of lung tumors)” value ([2]; 300 μg/mouse) was 50%. For the same molecule, the “number of lung tumors versus controls (in words)” value ([2]; mouse, in vivo) was “statistically fewer tumors than controls”, the “size of lung tumors (in words)” value ([2]; mouse, in vivo) was “smaller in size” and the “inhibition of platelet aggregation (in words, FIG. 1)” value [3] was “inhibit platelet aggregation”. The “competition with thrombospondin for adhesion of melanoma cells (in words)” value (intact thrombospondin) was “compete to a lesser degree”, the “% of buffer control” value (intact thrombospondin; 100 μg/ml) was 89% and the “% of buffer control” value (intact thrombospondin; 200 μg/ml) was 74%. The “% of buffer control” value (intact thrombospondin; 300 μg/ml) was 74%, the “% Buffer Control” value (fibronectin (FN)) was 96% and the “adherence to platelets (in words)” value (platelets) was “adhere to platelets”. For the same molecule, the “Adherence as % Control” value (platelets) was 38%, the “Adhesion as % Thrombospondin” value [1] was 70% and the “adhesive properties (in words)” value ([1]; melanoma cell adhesion, Table 1) was “display adhesive properties”.
In the case of `CC(C)[C@H](NC(=O)[C@H](CO)NC(=O)[C@H](CS)NC(=O)[C@@H]1CCCN1C(=O)[C@H](CO)NC(=O)[C@@H](N)Cc1c[nH]c2ccccc12)C(=O)N[C@H](C(=O)N[C@@H](CS)C(=O)NCC(=O)O)[C@@H](C)O` [p1] (H-WSPCSVTCG-OH), the “toxicity to embryo (abnormal development, embryo death)” value [4] was “not toxic”.
“Bovine serum albumin [BSA, reference compound]” was tested, and the “Adherence as % Control” value (platelets) was 0.7% and the “Adhesion as % Thrombospondin” value [1] was 13%.
